From ChEMBL document CHEMBL3785058, “Design and synthesis of novel 3-sulfonylpyrazol-4-amino pyrimidines as potent anaplastic lymphoma kinase (ALK) inhibitors” (Bioorg Med Chem Lett, 2016)

Key:
[1] = test system: NCI-H2228; assay: Antiproliferative activity against human NCI-H2228 cells after 96 hrs by CellTiter-Glo assay; type: functional, cell-based; details: NCI-H2228, 96 h
[2] = target: ALK tyrosine kinase receptor (Homo sapiens, UniProt Q9UM73); assay: Inhibition of recombinant human wild type ALK using tyrosine kinase substrate-biotin after 30 mins by HTRF assay
[3] = target: ALK tyrosine kinase receptor (Homo sapiens, UniProt Q9UM73, L1196M); assay: Inhibition of recombinant human ALK L1196M mutant using tyrosine kinase substrate-biotin after 30 mins by HTRF assay
[4] = Antiproliferative activity against human KARPAS299 cells after 96 hrs by CellTiter-Glo assay; type: functional, cell-based; details: KARPAS-299, 96 h
[5] = Ratio of IC50 for human ERG to IC50 for human NCI-H2228 cells

ALK tyrosine kinase receptor (Homo sapiens, UniProt Q9UM73, L1196M), sequence (Q9UM73 19-1620 L1196M limits assumed): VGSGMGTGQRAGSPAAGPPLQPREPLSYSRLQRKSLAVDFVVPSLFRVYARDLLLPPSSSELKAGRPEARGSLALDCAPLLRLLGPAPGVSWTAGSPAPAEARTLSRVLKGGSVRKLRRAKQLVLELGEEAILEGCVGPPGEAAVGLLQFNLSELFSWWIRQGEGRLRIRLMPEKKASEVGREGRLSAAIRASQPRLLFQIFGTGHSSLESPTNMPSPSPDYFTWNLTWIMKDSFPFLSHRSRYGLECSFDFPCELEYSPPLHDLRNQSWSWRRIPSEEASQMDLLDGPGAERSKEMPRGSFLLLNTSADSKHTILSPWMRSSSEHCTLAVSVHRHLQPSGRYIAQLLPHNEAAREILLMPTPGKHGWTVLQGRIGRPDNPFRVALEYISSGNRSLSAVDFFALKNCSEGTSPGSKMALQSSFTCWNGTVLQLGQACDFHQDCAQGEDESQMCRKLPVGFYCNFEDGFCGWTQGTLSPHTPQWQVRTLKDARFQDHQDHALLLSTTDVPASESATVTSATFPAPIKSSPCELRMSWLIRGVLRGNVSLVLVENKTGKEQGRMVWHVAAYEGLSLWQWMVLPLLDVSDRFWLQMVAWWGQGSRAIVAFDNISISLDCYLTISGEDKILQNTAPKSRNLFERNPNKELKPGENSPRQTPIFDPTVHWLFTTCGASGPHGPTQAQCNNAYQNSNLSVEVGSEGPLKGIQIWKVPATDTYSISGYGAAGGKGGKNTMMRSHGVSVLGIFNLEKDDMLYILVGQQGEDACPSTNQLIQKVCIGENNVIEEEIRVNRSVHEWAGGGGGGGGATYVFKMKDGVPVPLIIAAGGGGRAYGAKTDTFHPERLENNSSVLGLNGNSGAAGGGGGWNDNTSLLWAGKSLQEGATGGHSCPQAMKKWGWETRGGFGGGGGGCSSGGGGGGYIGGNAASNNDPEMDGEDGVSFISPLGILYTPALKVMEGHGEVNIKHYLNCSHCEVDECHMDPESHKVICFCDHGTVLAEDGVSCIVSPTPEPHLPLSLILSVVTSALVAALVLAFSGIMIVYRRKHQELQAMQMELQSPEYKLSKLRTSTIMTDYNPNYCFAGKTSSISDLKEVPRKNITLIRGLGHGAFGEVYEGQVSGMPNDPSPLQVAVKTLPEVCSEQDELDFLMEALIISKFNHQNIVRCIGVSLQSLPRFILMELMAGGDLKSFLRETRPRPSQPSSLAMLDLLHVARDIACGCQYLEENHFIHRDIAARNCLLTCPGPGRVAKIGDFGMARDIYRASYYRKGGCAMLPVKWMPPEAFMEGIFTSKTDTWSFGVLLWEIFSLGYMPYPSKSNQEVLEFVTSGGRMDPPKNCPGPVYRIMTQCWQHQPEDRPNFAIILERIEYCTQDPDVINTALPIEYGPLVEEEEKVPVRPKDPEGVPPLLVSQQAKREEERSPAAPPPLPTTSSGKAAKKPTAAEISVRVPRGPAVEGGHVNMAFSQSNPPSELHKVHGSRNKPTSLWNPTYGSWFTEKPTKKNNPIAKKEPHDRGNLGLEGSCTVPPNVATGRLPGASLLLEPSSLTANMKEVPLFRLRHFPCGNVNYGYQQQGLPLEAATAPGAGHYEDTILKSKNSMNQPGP
ALK tyrosine kinase receptor (Homo sapiens, UniProt Q9UM73), sequence (Q9UM73 whole entry): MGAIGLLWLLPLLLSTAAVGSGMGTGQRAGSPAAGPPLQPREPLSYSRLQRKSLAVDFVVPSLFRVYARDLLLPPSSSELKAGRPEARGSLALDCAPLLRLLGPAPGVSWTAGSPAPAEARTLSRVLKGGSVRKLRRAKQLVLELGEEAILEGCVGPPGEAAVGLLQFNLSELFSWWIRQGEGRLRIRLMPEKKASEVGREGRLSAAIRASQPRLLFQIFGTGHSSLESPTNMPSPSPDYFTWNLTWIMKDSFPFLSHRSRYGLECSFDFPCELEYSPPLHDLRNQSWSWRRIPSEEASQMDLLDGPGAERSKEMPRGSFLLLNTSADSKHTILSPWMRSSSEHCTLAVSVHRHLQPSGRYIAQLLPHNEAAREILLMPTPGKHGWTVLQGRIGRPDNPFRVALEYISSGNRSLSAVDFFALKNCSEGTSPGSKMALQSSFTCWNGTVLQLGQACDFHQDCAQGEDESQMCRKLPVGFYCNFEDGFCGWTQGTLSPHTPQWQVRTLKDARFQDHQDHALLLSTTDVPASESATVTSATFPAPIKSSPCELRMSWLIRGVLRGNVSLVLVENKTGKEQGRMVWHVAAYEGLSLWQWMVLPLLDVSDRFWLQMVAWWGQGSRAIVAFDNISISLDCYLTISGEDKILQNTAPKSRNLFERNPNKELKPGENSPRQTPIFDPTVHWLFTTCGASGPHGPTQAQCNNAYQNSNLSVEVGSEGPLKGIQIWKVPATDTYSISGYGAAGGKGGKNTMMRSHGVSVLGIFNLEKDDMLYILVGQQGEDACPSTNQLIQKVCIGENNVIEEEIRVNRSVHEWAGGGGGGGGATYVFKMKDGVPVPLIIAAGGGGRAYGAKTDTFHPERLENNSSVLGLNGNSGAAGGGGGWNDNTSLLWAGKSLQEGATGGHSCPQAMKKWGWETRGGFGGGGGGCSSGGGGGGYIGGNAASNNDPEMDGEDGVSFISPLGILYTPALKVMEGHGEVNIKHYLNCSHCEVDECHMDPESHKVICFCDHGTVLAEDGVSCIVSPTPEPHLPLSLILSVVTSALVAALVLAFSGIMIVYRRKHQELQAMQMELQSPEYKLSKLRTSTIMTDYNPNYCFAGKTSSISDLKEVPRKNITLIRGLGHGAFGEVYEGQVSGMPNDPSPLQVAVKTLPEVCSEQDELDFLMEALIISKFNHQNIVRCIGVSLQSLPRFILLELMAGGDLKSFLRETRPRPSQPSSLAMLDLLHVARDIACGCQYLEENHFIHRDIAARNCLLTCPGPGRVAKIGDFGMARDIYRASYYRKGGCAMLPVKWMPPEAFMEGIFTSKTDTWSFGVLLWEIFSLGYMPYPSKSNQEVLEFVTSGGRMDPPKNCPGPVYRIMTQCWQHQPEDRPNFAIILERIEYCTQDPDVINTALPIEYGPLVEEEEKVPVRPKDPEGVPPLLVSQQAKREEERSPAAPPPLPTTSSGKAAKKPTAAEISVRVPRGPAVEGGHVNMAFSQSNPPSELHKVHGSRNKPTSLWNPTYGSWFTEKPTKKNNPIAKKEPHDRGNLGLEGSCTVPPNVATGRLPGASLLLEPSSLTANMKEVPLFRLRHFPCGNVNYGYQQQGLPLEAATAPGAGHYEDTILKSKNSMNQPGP

Row | Compound | IC50 [1] [nM] | IC50 [2] [nM] | IC50 [3] [nM] | IC50 [4] [nM] | Ratio IC50 [5]
1 | Cc1cc(Nc2ncc(Cl)c(Nc3cn(C)nc3S(=O)(=O)C(C)C)n2)c(OC2CC2)cc1[C@H]1CC[C@H](NC(=O)C2CC2)CC1 | 154 |  |  |  | 
2 | Cc1cc(Nc2ncc(C)c(Nc3cn(C)nc3S(=O)(=O)C(C)C)n2)c(OC2CC2)cc1C1CCN(C)CC1 | 69 |  |  |  | 
3 | Cc1cc(Nc2ncc(Cl)c(Nc3c[nH]nc3S(=O)(=O)C(C)C)n2)c(OC(C)C)cc1C1CCNCC1 |  | 22 | 28 | 1250 | 
4 | Cc1cc(Nc2ncc(Cl)c(Nc3cn(C)nc3S(=O)(=O)C3CC3)n2)c(OC(C)C)cc1C1CCNCC1 | > 10000 | 400 | > 10000 | > 10000 | 
5 | Cc1cc(Nc2ncc(Cl)c(Nc3cn(C)nc3S(=O)(=O)C(C)C)n2)c(OC2CC2)cc1C1CCN(C)CC1 | 39 | 1 |  |  | 
6 | Cc1nc(Nc2nc(Nc3cc(C)c(C4CCN(C)CC4)cc3OC3CC3)ncc2Cl)c(S(=O)(=O)C(C)C)s1 | 490 | 3 | 19 |  | 
7 | Cc1cc(Nc2ncc(Cl)c(Nc3cn(C)nc3S(=O)(=O)C(C)C)n2)c(OC2CC2)cc1[C@H]1CC[C@H](NS(C)(=O)=O)CC1 | 151 | 16 | 20 | 18 | 
8 | Cc1cc(Nc2ncc(F)c(Nc3cn(C)nc3S(=O)(=O)C(C)C)n2)c(OC2CC2)cc1C1CCN(C)CC1 | 81 |  |  |  | 
9 | Cc1cc(Nc2ncc(Cl)c(Nc3cn(C)nc3S(=O)(=O)C(C)C)n2)c(OC2CC2)cc1[C@H]1CC[C@H](NC2CC2)CC1 | 88 |  |  | 9 | 23
10 | Cc1cc(Nc2ncc(Cl)c(Nc3cn(C)nc3S(=O)(=O)C(C)C)n2)c(OC2CC2)cc1[C@H]1CC[C@H](NCCN(C)C)CC1 | 210 |  |  |  | 
11 | CCN(CC)[C@H]1CC[C@@H](c2cc(OC3CC3)c(Nc3ncc(Cl)c(Nc4cn(C)nc4S(=O)(=O)C(C)C)n3)cc2C)CC1 | 60 |  |  |  | 
12 | Cc1cc(Nc2ncc(Cl)c(Nc3cn(C)nc3S(=O)(=O)C(C)C)n2)c(OC(C)C)cc1C1CCNCC1 | 198 |  |  | 16 | 
13 | Cc1cc(Nc2ncc(Cl)c(Nc3cn(C)nc3S(=O)(=O)CC(C)C)n2)c(OC(C)C)cc1C1CCNCC1 | 193 |  |  | 24 | 
14 | Cc1cc(Nc2ncc(Cl)c(Nc3cn(C)nc3S(=O)(=O)C(C)C)n2)c(OC2CC2)cc1[C@H]1CC[C@@H](NC2CC2)CC1 | 116 | 8 | 20 |  | 15
15 | CCC(C)S(=O)(=O)c1nn(C)cc1Nc1nc(Nc2cc(C)c(C3CCNCC3)cc2OC(C)C)ncc1Cl (stereo unspecified) | 224 |  |  | 21 | 
16 | Cc1cc(Nc2ncc(Cl)c(Nc3cn(C)nc3S(=O)(=O)C(C)C)n2)c(OC2CC2)cc1C1CCC(N2CCN(C)CC2)CC1 (mixture of isomers) | 141 |  |  |  | 6
